{
  "source": "patent US7351875B2",
  "about": "“FcγRIIa transgenic animal model for autoimmune disease” (Trillium Therapeutics, Inc., priority 2002, dated 2008)",
  "key": {"[1]": {"test_system": "FcγRIIa transgenic mice with CIA", "experiment": "Collagen-induced arthritis (CIA) in FcγRIIa transgenic mice, arthritis index", "type": "in vivo, mouse", "conditions": "FIG. 14", "from_the_text": "In transgenic mouse models of the present invention the following mice strains were used DBA/1 (H-2^q) males at 8-12 weeks old, C57BL/6 (H-2^b) and (C57BL/6×SJ (H-2^b/s) males or females at 8-15 weeks old, and transgenic mice expressing the FcγRIIa human transgene on platelets, neutrophils and macrophages at physiological levels, (as described in McKenzie et al. 1999). Transgenic males or females at 12-15 weeks old were used in collagen-induced arthritis (CIA) experiments, and >25 weeks old for the spontaneous autoimmune disease studies. All mice were bred and kept in clean conditions and were fed a standard diet and water ad libitum. The mouse is characterised in the published paper by McKenzie et al. 1999, listed in references.\nComplete Freund's Adjuvant (CFA) was prepared by mixing 100 mg heat-killed M tuberculosis H37 Ra (Difco Laboratories, Detroit, Mich.) ground in 20 ml Incomplete Freund's Adjuvant (Difco Laboratories, Detroit, Mich.). […]\nMice were examined 2-3 times per week from day 14 onwards. […] The score of each mouse was calculated for the four limbs (maximum total score of 12 for each mouse) (Campbell et al. 1997). […]\nThe score for each mouse was calculated by adding the scores of the four limbs (maximum score of 12 for each mouse) (Campbell et al. 1997). […]"}, "[2]": {"test_system": "non transgenic DBA/1 mice with CIA", "conditions": "Neurath, Hildner et al. 1999; cited from earlier work"}},
  "data": [
    {"smiles": "CN(Cc1cnc2nc(N)nc(N)c2n1)c1ccc(C(=O)N[C@@H](CCC(=O)O)C(=O)O)cc1", "note": "[methotrexate]", "values": [
      {"measurement": "delay of CIA", "setting": "[1]; 1 mg/kg for 14 days from second collagen injection, day 21-35", "result": "effective in delaying CIA"},
      {"measurement": "disease after treatment ceased", "setting": "[1]; as immune function returned to normal after treatment ceased", "result": "increased in severity"},
      {"measurement": "delay of CIA in DBA/1 mice", "setting": "[2]", "result": "effective in delaying CIA"}
    ]}
  ]
}
